Measured values taken from PubChem BioAssay AID463074 (Broad Institute, 2010).
Calls of active or inactive are those of the source.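 How the source made its calls: active means AC50 no more than tenfold above the top dose tested, or full inhibition at every dose with a flat fit (cut at about 19 µM in these data); inconclusive means flat curve fit with inhibition between 30% and 70%, or poor fit; inactive means AC50 more than tenfold above the top dose tested.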

Test system: HMLE_sh_eGFP viability, CellTiter-Glo luminescence, 72 h
Experiment: cytotoxicity in HMLE control line with eGFP shRNA, dose response, counter-screen for HMLE_sh_ECad selective toxicity project, cell-based, HMLE_sh_eGFP, luminescence (AID 463074);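 further: counterscreen control line to flag general toxicity for the HMLE_sh_ECad screen; potency for loss of viability as luminescence drops below DMSO wells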

Row | SMILES | AC50
1 | CC(C)c1ccc(N2C(=O)NC(=O)/C(=C\C=C\c3ccco3)C2=O)cc1 | > 19.5 µM (inactive)
2 | CCCCNC(=S)N(C)/N=C/c1ccc2c(c1)OCO2 | 16.3 µM
3 | CC1CCCC(NCC(O)COC(c2ccc(F)cc2)c2ccc(F)cc2)C1C (stereo unspecified) | 6.69 µM
4 | O=C(NCc1ccco1)c1ccc2c(c1)N(Cc1ccccc1)CCS2 | > 19.5 µM (inactive)
5 | Cc1ccc(-c2ccc([C@H]3[C@@H]4C=CCC[C@@]4(C)C(=O)N3Cc3ccccc3)c(F)c2)cc1 | 5.32 µM
6 | O=C(CN1CCN(c2ccc(O)cc2)CC1)Nc1ccc(SC(F)F)cc1 | 6.17 µM
7 | Cc1ccc(CNc2cnn(C34CC5CC(CC(C5)C3)C4)c(=O)c2Cl)cc1 | 2.44 µM
8 | COC(=O)c1c(NC(=O)c2ccccc2)sc2c1CC(C)(C)OC2 | > 19.5 µM (inactive)
9 | CC1=CC(C)(C)N(S(=O)(=O)c2ccc(F)cc2)c2ccc(C)cc21 | 2.61 µM
10 | CC(/C=N/n1c(C2CCCCC2)n[nH]c1=S)=C\c1ccccc1 | 4.88 µM
11 | CCn1c2ccccc2c2cc(NC(=O)c3cc(OC)cc(OC)c3)ccc21 | 0.258 µM
12 | CCC(C)NCCOc1ccc(C(C)(C)c2ccccc2)cc1 (stereo unspecified) | 5.92 µM
13 | CC/C(=N/NC(=O)c1ccccc1O)c1c(C)[nH]n(-c2ccccc2)c1=O | 5.25 µM
14 | COc1cccc(-c2sc3ccccc3c2-c2ccc(OCCN3CCOCC3)cc2)c1 | 4.3 µM
15 | Cc1cc(NC(=O)/C=C/c2ccc(Cl)cc2)no1 | > 19.5 µM (inactive)
16 | COC(=O)c1sc(-c2ccc(C(C)(C)C)cc2)cc1NC(=O)/C=C/C(=O)O | 4.28 µM
17 | CCCCOc1ccc(S(=O)(=O)N2CCN(c3ccc(N4CCN(CC)CC4)nn3)CC2)cc1 | 0.46 µM
18 | Cc1csc(NC(=S)Nc2cccc(Cl)c2)n1 | 10.4 µM
19 | Cc1ccc(C(=O)NC(=C(Cl)Cl)S(=O)(=O)c2ccc(C)cc2)cc1 | 5.16 µM
20 | CCOc1cccc(/C=N/NC(=O)c2cc(C3CC3)[nH]n2)c1O | 5.72 µM
21 | COc1cc(OC)cc(-c2nnc(SCC(=O)N(Cc3ccccc3)C(C)(C)C)o2)c1 | 2.74 µM
22 | Nc1c(C(O)(C(F)(F)F)C(F)(F)F)cc(C(O)(C(F)(F)F)C(F)(F)F)c2ccccc12 | 3.95 µM
23 | CC[C@H](C)[C@H]1O[C@]2(CC[C@@H]1C)C[C@@H]1C[C@@H](CC=C(C)[C@@H](O[C@H]3C[C@H](OC)[C@@H](O[C@H]4C[C@H](OC)[C@@H](O)[C@H](C)O4)[C@H](C)O3)[C@@H](C)C=CC=C3CO[C@@H]4[C@H](O)C(C)=C[C@@H](C(=O)O1)[C@]34O)O2 | 1.78 µM
24 | CCCCCc1cc(=O)oc2c(C(CCN3CCCC(C)C3)c3ccc(OC)cc3)c(OC)cc(OC)c12 (stereo unspecified) | 5.33 µM

Row | SMILES | AC50
25 | CC(=NCc1cccc(Cl)c1)c1nc(-c2ccco2)oc1O | 0.554 µM
26 | Cc1ccccc1-c1cc(C(=O)Nc2sc(C(=O)OC(C)C)c(C)c2C#N)c2ccccc2n1 | 2.66 µM
27 | CCc1ccc(N=Nc2ccc(O)c3[nH]cnc23)cc1 | 2.06 µM
28 | CCCN1C/C(=C/c2ccc3c(c2)OCO3)C(=O)/C(=C/c2ccc3c(c2)OCO3)C1 | 1.12 µM
29 | Cc1ccc(Nc2nc(N)c([N+](=O)[O-])c(NCc3ccco3)n2)cc1C | 7.19 µM
30 | O=C(C[C@@H]1C/C=C/CC[C@H](Cc2ccc(F)cc2)C(=O)OC[C@@H](Cc2ccccc2)NC1=O)N[C@H](CO)Cc1ccccc1 | 1.56 µM
31 | CCN1C(=O)C(=Cc2cccc(OC)c2Oc2ccc([N+](=O)[O-])cc2[N+](=O)[O-])SC1=S | 2.27 µM
32 | O=[N+]([O-])c1cccc(-c2csc(Nc3ccccc3)n2)c1 | 3.88 µM
33 | CCCCCc1cc(=O)oc2c(C(CCN3CCCCC3)c3ccc(OC)cc3)c(OC)cc(OC)c12 (stereo unspecified) | 7.47 µM
34 | O=C(Nc1nc(-c2cccs2)cs1)c1ccc([N+](=O)[O-])o1 | 3.18 µM
35 | OC(CNCCc1ccc(C(F)(F)F)cc1)COc1cccc2ccccc12 (stereo unspecified) | 3.54 µM
36 | CC(=O)Nc1ccc(NC(=O)CSc2ncc(C(=O)Nc3ccccc3)c(=O)n2C)cc1 | 5.44 µM
37 | O=C(NNC1=C(C(=O)C(F)(F)F)CCC1)c1ccc(Cl)cc1 | 4.25 µM
38 | Cc1ccc(/C=N/NC(=O)CNC(=O)COc2ccccc2)o1 | > 19.5 µM (inactive)
39 | CC(C)COc1ccc(-c2nn(-c3ccccc3)cc2/C=C2/SC(=S)N(CC(=O)O)C2=O)cc1 | 4.51 µM
40 | COc1ccc(C(=O)Nc2ccc(Nc3ccccc3)cc2)cc1[N+](=O)[O-] | 4.19 µM
41 | COc1cc(SC#N)ccc1N=Cc1c(C)[nH]n(-c2ccc(C)cc2)c1=O | 5.99 µM
42 | CC(=O)Oc1ccc(-c2csc(Nc3cccc(C)n3)n2)cc1 | 8.79 µM
43 | Cc1ccc(C(=O)N/N=C\c2ccc(-c3ccc(Cl)c(Cl)c3)o2)cn1 | 5.54 µM
44 | COc1ccc(-c2sc3ccccc3c2-c2ccc(O)cc2)cc1 | 6.43 µM
45 | CCOC(=O)N1C(=O)[C@@](c2ccc(Cl)cc2)(C(C)C)N1C(=O)OCC | 7.14 µM
46 | Cn1nnnc1Sc1ncnc2scc(-c3cccc4c3sc3ccccc34)c12 | 1.65 µM
47 | COC(=O)c1ccccc1NCc1cc(=O)oc2cc(O)c(O)cc12 | 10.9 µM
48 | O=C1C=C(c2ccc(F)cc2OCc2ccccc2)C[C@@H](c2ccc(F)cc2)C1 | 2.25 µM

Row | SMILES | AC50
49 | Cc1ccc(NC(=S)N(CCCN2CCCC2)Cc2cccn2Cc2ccc(Cl)cc2)cc1Cl | 4.92 µM
50 | Cc1cccc(-n2cc(CN(C)Cc3nccn3C)c(-c3cccc(F)c3)n2)c1 | 15.5 µM
51 | COc1cc(C(=O)N/N=C(\Cc2ncc[nH]2)c2ccccc2)cc(OC)c1OC | 6.39 µM
52 | O=C1NC[C@@H](Cc2cccc3ccccc23)N(CCCCC2CCCCC2)C1=O | 7.05 µM
53 | CC(C)OCCCNC(=O)c1c(N)n(Cc2cccs2)c2nc3ccccc3nc12 | 4.3 µM
54 | Cc1nc(Nc2ccc(Cl)cc2Cl)sc1C(=O)Nc1ccccc1 | 11.5 µM
55 | N#CCSc1nc2ccccc2c2nc3ccccc3n12 | 5.1 µM
56 | O=C1NC(=O)N(Cc2ccccc2)C(=O)/C1=C\C=C\c1ccco1 | 1.93 µM
57 | C=CCn1c(SCCC)nc2sc3c(c2c1=O)CCc1ccccc1-3 | 2.26 µM
58 | Cc1sc2nc(SCCN(C)C)n(-c3ccccc3)c(=O)c2c1-c1ccc(F)cc1 | 10.2 µM
59 | CC(C)=CCOc1ccc([C@@H]2COc3c(ccc4c3C=CC(C)(C)O4)C2)c(O)c1 | 3.04 µM
60 | Cc1ccc(CN2CCSc3ccc(C(=O)NCc4ccco4)cc32)cc1 | > 19.5 µM (inactive)
61 | c1cc(SC2CCCCC2)cc(-c2nc3cnccn3c2NC2CCCCC2)c1 | 1.78 µM
62 | C[C@@]12CCC=C[C@H]1[C@H](c1ccc(F)c(/C=C/c3ccccc3)c1)N(Cc1ccccc1)C2=O | 7.18 µM
63 | Cc1cc(NC(=O)c2cc(-c3ccncc3)nc3ccccc23)ccc1Br | 6.77 µM
64 | COc1ccc(NS(=O)(=O)c2cccc(C(=O)N/N=C(\C)c3ccc(-n4ccnc4)cc3)c2)cc1 | > 19.5 µM (inactive)
65 | O=C(Nc1cc(C(F)(F)F)cc(C(F)(F)F)c1)Nc1cnn(-c2ccc([N+](=O)[O-])cc2)c1C(F)(F)F | 0.848 µM
66 | Cn1c(N)c(C(=O)COC(=O)c2ccccc2C(=O)c2ccc(Cl)c([N+](=O)[O-])c2)c(=O)n(C)c1=O | 3.61 µM
67 | COc1cc(CN2CCN(c3cccc(Cl)c3)CC2)cc(OC)c1OC | 2.58 µM
68 | Cc1cc(N2CCN(C)CC2)nc2ccc(NC(=S)NCCC(C)C)cc12 | 7.91 µM
69 | COc1ccc(-c2sc3cc4c(cc3c2-c2ccc(OCCN3CCOCC3)cc2)OCO4)cc1 | 0.254 µM
70 | C[C@H](CO)N1C[C@H](C)[C@@H](CN(C)C(=O)Nc2ccc(C(F)(F)F)cc2)Oc2c(NC(=O)Nc3ccc(C(F)(F)F)cc3)cccc2C1=O | 4.26 µM
71 | N#CC1=C(SCC(=O)c2ccc(Br)cc2)NC2=C(C(=O)CCC2)C1c1ccco1 (stereo unspecified) | 2.21 µM
